Measured values as given in patent publication US20060194807A1, “Di-aryl substituted pyrazole modulators of metabotropic glutamate receptor-5” (priority 2003, published 2006).
Structures can show the parent of a compound that is named as a salt.

Target: T1, hmGluR5a receptor (Homo sapiens, UniProt P41594)
T1 construct: expressed in transfected cells; host or cells: mouse fibroblast Ltk- cells (hmGluR5a/L38-20 cell line)
Assay: Calcium flux assay (fura-2, glutamate-evoked [Ca2+]i)
Type: cell-based
Details: hmGluR5a/L38-20 mouse fibroblast Ltk- cells; 10 μM glutamate (EC80); read-out: mGluR5 inhibitory activity, IC50
Description: The compounds of this invention were tested against the hmGluR5a receptor stably expressed in mouse fibroblast Ltk-cells (the hmGluR5a/L38-20 cell line) and activity was detected by changes in [Ca^++]i, measured using the fluorescent Ca^++-sensitive dye, fura-2. InsP assays were performed in mouse fibroblast Ltk^− cells (LM5a cell line) stably expressing hmGluR5a. The assays described in International Patent Publication WO 0116121 can be used.
The activity of compounds was examined against the hmGluR5a receptor stably expressed in mouse fibroblast Ltk− cells (the hmGluR5a/L38 cell line). See generally Daggett et al., Neuropharmacology 34:871-886 (1995). Receptor activity was detected by changes in intracellular calcium ([Ca^2+]i, measured using the fluorescent calcium-sensitive dye, fura-2. The hmGluR5a/L38-20 cells were plated onto 96-well plates, and loaded with 3 µM fura-2 for 1 h. Unincorporated dye was washed from the cells, and the cell plate was transferred to a 96-channel fluorimeter (SIBIA-SAIC, La Jolla, Calif.) which is integrated into a fully automated plate handling and liquid delivery system. Cells were excited at 350 and 385 nm with a xenon source combined with optical filters. Emitted light was collected from the sample through a dichroic mirror and a 510 nm interference filter and directed into a cooled CCD camera (Princeton Instruments). Image pairs were captured approximately every is, and ratio images were generated after background subtraction. After a basal reading of 20s, an EC80 concentration of glutamate (10 μM) was added to the well, and the response evaluated for another 60s. The glutamate-evoked increase in [Ca′]i in the presence of the screening compound was compared to the response of glutamate alone (the positive control).

T1 sequence (P41594 21-1180 isoform P41594-2 limits assumed): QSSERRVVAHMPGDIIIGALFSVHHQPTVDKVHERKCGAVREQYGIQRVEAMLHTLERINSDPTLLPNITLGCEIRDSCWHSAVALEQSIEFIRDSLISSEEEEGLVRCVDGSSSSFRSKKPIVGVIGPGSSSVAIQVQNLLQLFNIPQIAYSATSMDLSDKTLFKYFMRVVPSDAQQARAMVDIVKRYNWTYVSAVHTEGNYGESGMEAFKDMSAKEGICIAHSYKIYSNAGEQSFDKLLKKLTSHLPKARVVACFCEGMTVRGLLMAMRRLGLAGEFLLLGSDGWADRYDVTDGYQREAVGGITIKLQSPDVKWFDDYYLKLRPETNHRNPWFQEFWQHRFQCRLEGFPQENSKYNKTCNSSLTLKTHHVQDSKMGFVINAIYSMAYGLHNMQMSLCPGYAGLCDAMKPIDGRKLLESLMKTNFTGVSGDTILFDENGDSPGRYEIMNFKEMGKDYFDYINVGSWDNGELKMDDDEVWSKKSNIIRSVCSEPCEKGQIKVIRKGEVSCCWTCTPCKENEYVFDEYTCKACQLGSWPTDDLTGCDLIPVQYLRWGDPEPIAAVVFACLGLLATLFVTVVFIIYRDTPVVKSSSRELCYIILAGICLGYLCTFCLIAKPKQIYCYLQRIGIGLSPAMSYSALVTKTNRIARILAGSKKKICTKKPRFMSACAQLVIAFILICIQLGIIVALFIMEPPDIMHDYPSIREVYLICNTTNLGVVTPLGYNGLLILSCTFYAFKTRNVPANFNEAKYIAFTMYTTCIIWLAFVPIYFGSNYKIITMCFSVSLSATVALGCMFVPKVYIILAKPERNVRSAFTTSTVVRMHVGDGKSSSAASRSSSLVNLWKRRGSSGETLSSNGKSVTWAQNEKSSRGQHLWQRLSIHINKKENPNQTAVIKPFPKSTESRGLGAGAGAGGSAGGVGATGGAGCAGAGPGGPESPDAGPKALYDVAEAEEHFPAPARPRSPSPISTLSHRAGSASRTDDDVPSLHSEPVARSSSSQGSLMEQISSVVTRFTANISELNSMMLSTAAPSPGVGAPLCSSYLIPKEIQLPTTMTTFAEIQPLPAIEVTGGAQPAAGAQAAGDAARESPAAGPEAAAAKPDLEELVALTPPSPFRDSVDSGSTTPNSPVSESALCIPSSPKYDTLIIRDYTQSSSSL

IC50 | SMILES
< 2000 nM | Clc1cc(-c2cccnc2)cc(-n2cc(-c3ccccn3)cn2)c1 [Example 1, 2-[1-(3-chloro-5-pyridin-3-ylphenyl)-1H-pyrazol-4-yl]pyridine]
< 2000 nM | Fc1cc(-c2nn[nH]n2)cc(-n2ccc(-c3ccccn3)n2)c1 [Example 2, 2-{1-[3-fluoro-5-(2H-tetraazol-5-yl)phenyl]-1H-pyrazol-3-yl}pyridine]
< 2000 nM | Clc1cc(-c2cccnc2)cc(-c2cnn(-c3ccccn3)c2)c1 [Example 3, 2-[4-(3-chloro-5-pyridin-3-ylphenyl)-1H-pyrazol-1-yl]pyridine]
< 2000 nM | c1ccc(-c2cnn(-c3cccc(-c4cccnc4)c3)c2)nc1 [Example 4]
< 2000 nM | c1ccc(-c2cccc(-n3cc(-c4ccccn4)cn3)c2)nc1 [Example 5]
< 2000 nM | c1ccc(-c2cccc(-n3cc(-c4ccccn4)cn3)c2)cc1 [Example 6]
< 2000 nM | COc1cc(-c2cnn(-c3ccccn3)c2)ccc1-c1ccccn1 [Example 7]
> 2000 nM | c1ccc(-c2cnn(-c3cccc(-c4cccnc4)n3)c2)nc1 [Example 8, 6-(4-pyridin-2-yl-1H-pyrazol-1-yl)-2,3′-bipyridine]
> 2000 nM | c1ccc(-c2ccc(-n3ccc(-c4ccccn4)n3)cc2)cc1 [Example 9, 2-(1-biphenyl-4-yl-1H-pyrazol-3-yl)-pyridine hydrochloride]
> 2000 nM | c1ccc(-c2cnn(-c3cccc(-c4ccncc4)c3)c2)nc1 [Example 10]
> 2000 nM | c1ccc(-c2ccc(-n3cc(-c4ccccn4)cn3)cc2)nc1 [Example 11]
> 2000 nM | c1ccc(-c2cnn(-c3ccc(-c4cccnc4)cc3)c2)nc1 [Example 12]
> 2000 nM | Cc1ccncc1-c1cc(F)cc(-c2cnn(-c3ccccn3)c2)c1 [Example 13]
> 2000 nM | Clc1cc(-c2cnn(-c3ccccn3)c2)cc(-n2ccc3ccncc32)c1 [Example 14]
> 2000 nM | Fc1cc(-c2cnn(-c3ccccn3)c2)ccc1-c1ccccn1 [Example 15]
> 2000 nM | c1ccc(-c2ccc(-n3cc(-c4ccccn4)cn3)cc2)cc1 [Example 16]

IC50 | SMILES
> 2000 nM | c1ccc(-c2ccccc2-n2cc(-c3ccccn3)cn2)cc1 [Example 17]
> 2000 nM | c1ccc(-c2ccccc2-n2cc(-c3ccncn3)cn2)cc1 [Example 18]
> 2000 nM | c1ccc(-c2cccc(-n3cc(-c4ccncn4)cn3)c2)cc1 [Example 19]
> 2000 nM | c1ccc(-c2cnn(-c3ccc(C4CCCCC4)cc3)c2)nc1 [Example 20]
> 2000 nM | c1cc(-c2cnn(-c3ccc(C4CCCCC4)cc3)c2)ncn1 [Example 21]
> 2000 nM | c1ccc2nc(-c3cnn(-c4ccc(C5CCCCC5)cc4)c3)ccc2c1 [Example 22]
> 2000 nM | c1ccc2nc(-c3cnn(-c4ccc(C5CCCCC5)cc4)c3)cnc2c1 [Example 23]
> 2000 nM | Cc1cc(-c2cnn(-c3ccc(C4CCCCC4)cc3)c2)nc2ccccc12 [Example 24]
> 2000 nM | c1ccc(-c2ccc(-n3cc(-c4ccncn4)cn3)cc2)cc1 [Example 25]
> 2000 nM | Cc1cc(-c2cnn(-c3ccc(N4CCNC4=O)cc3)c2)nc2ccccc12 [Example 26]
> 2000 nM | CN1CCN(c2ccc(-n3cc(-c4ccncn4)cn3)cc2)C1=O [Example 27]
> 2000 nM | CN1CCN(c2ccc(-n3cc(-c4ccc5ccccc5n4)cn3)cc2)C1=O [Example 28]
> 2000 nM | CN1CCN(c2ccc(-n3cc(-c4cnc5ccccc5n4)cn3)cc2)C1=O [Example 29]
> 2000 nM | Cc1cc(-c2cnn(-c3ccc(N4CCN(C)C4=O)cc3)c2)nc2ccccc12 [Example 30]
> 2000 nM | c1ccc(-c2cccc(-n3cc(-c4ccccn4)cn3)c2)cc1 [Example 31]
> 2000 nM | c1ccc(-c2cccc(-c3cnn(-c4ccccn4)c3)c2)cc1 [Example 33]
